Earlier results in patent US7247427B1, “Leptin assay” (Yeda Research and Development Co., Ltd., priority 1999, dated 2007).

Tested on: cultured adipocytes
Details: no Angiopoietin-2 expressed in the absence of leptin

leptin: the product of the obese gene, expressed in adipocytes; regulates food intake and energy metabolism through its receptor OB-R
expression of the angiopoietin-2 gene: specifically induces the expression of the angiopoietin-2 gene
